Like-named read-outs stand apart in the source and are kept apart here.
Tests used:
CTCL [1] = test system: CTCL; set-up: method as in printed at the place; settings: authors' previous studies of F7, no ref printed at the place, read-out: IC50, efficacy in CTCL; cited from earlier work
p38γ = target: T1, p38γ (Homo sapiens, UniProt P53778); assay: In vitro kinase assay using ADP-Glo, p38γ; format: biochemical; settings: for inhibition of p38γ kinase activity (in words): drugs targeting CDK9, Appendix A Figure 7
T1 construct: human recombinant p38α, β, γ, or δ protein kinases (active full-length) were acquired from SignalChem; purchased SignalChem
T1 sequence (P53778 1-367): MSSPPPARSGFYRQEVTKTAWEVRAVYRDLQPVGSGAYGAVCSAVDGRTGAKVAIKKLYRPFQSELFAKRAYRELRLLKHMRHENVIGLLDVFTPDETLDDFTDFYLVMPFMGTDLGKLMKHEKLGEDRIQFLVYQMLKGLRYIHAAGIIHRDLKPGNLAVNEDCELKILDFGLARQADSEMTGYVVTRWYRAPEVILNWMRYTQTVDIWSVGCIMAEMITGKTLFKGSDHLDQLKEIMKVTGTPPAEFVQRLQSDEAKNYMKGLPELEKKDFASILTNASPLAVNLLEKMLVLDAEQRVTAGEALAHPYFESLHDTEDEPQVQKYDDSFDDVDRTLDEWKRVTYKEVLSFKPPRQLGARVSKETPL
Method: (§1) Therefore, we attempted to screen p38γ inhibitors from […] by performing an in vitro kinase assay using ADP-Glo as readout for activated p38 isoforms.
(§2) To identify p38γ inhibitors using in vitro kinase assay, a library of kinase inhibitors was screened. The library consists of 244 compounds on three plates (EMD Cat#539744, #539745 and #539746) that are mostly ATP mimics. […] For biochemical screening, in vitro kinase assays were performed using an ADP-Glo kit (Promega, Madison, WI) according to the manufacture’s protocol. […] Briefly, for in vitro assay experiments, human recombinant p38α, β, γ, or δ protein kinases (active full-length) were acquired from SignalChem, and the assay was performed followed protocols from the company. […] Then, ADP-Glo Reagent was incubated in the mixture at room temperature for 40 min, followed by incubation of Kinase Detection Reagent for another 30 min. IC50 values were determined using CalcuSyn software (Biosoft, Cambridge, United Kingdom).

[2] = test system: lymphoma or multiple myeloma; set-up: method as in NCT00112723; settings: flavopiridol, trial terminated (administratively complete); ref NCT00112723; cited from earlier work
Hut78 CTCL cells = assay: cells; format: cell-based; settings: Homo sapiens
Method: Cell viability was calculated by diluting cell suspensions 1:1 in 0.4% Trypan Blue solution (Sigma, St. Louis, MO) and counting the number of viable cells using a TC20™ automated cell counter (Bio-Rad, Irvine, CA) which automatically excludes the number of non-viable cells stained with trypan blue per total cells. CellTiterGlo Cell Viability Assay (Promega) method was used as described previously. All data points are an average of triplicate experiments.
CellTiterGlo Cell Viability Assay (Promega) was used to measure viability of Hut78 CTCL cells. […] using an automated BMG PHERAstar plate reader (BMG Labtech, Ortenberg, Germany). IC50 values were determined using CalcuSyn software. All experiments were repeated in three independent experiments and data represented are the average of triplicate experiments.

p38α = target: T2, p38α (Homo sapiens, UniProt Q16539); assay: In vitro kinase assay using ADP-Glo, p38α; format: biochemical; settings: cell-free
T2 construct: human recombinant p38α, β, γ, or δ protein kinases (active full-length) were acquired from SignalChem; purchased SignalChem
T2 sequence (Q16539 whole entry): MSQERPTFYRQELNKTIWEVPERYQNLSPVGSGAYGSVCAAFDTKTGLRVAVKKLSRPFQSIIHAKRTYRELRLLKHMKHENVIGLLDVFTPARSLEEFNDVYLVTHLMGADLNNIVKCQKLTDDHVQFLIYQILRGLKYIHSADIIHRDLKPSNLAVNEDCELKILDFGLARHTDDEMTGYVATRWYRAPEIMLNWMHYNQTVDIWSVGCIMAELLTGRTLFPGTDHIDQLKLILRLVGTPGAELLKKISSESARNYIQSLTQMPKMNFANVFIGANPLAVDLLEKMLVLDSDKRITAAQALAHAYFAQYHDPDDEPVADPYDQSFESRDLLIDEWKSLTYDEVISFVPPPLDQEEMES
Method: as §1, §2

[3] = test system: newly diagnosed acute myeloid leukemia; set-up: method as in NCT00407966; settings: alvocidib together with cytarabine and mitoxantrone; ref NCT00407966; cited from earlier work
[4] = test system: relapsed or refractory mantle cell lymphoma (MCL) and diffuse large B-cell lymphoma (DLBCL); set-up: method as in NCT00445341; settings: flavopiridol, ref NCT00445341, cited from earlier work
p38δ = target: T3, p38δ (Homo sapiens, UniProt O15264); assay: In vitro kinase assay using ADP-Glo, p38δ; format: biochemical; settings: cell-free
T3 construct: human recombinant p38α, β, γ, or δ protein kinases (active full-length) were acquired from SignalChem; purchased SignalChem
T3 sequence (O15264 1-365): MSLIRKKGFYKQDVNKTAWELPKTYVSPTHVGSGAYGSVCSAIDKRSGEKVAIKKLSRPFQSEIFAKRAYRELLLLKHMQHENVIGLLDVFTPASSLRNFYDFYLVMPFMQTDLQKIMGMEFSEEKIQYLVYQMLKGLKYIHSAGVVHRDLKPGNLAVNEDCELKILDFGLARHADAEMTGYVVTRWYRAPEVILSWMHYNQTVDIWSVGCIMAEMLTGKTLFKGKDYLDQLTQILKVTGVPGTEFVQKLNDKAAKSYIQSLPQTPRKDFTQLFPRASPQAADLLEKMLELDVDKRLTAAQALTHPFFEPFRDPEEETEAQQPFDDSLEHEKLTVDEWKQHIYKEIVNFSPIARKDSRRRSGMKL
Method: as §1, §2

[5] = test system: newly diagnosed acute myeloid leukemia; set-up: method as in NCT01349972; settings: alvocidib, cytarabine, and mitoxantrone hydrochloride; ref NCT01349972; cited from earlier work
[6] = test system: previously treated chronic lymphocytic leukemia or lymphocytic lymphoma; set-up: method as in NCT00058240; settings: ref NCT00058240, cited from earlier work
CTCL [7] = assay: Efficacy in CTCL (IC50s quoted in the discussion); format: cell-based
[8] = test system: advanced ovarian epithelial cancer or primary peritoneal cancer; set-up: method as in NCT00083122; settings: cisplatin together with flavopiridol, ref NCT00083122, cited from earlier work
[9] = test system: relapsed or refractory acute myeloid leukemia; set-up: method as in NCT00634244; settings: combination chemotherapy regimen, not given; ref NCT00634244; cited from earlier work
[10] = test system: advanced stomach or gastro-esophageal junction cancer; set-up: method as in NCT00991952; settings: irinotecan hydrochloride with or without alvocidib; ref NCT00991952; cited from earlier work
[11] = test system: newly diagnosed acute myeloid leukemia; set-up: method as in NCT00795002; settings: ref NCT00795002, cited from earlier work
[12] = test system: refractory metastatic pancreatic cancer; set-up: method as in NCT00331682; settings: docetaxel followed by flavopiridol; ref NCT00331682; cited from earlier work
Hut78 cells = assay: Combination treatment of FVP and niclosamide, MTS, CI by CompuSyn; format: cell-based; settings: 72 hours
[13] = HuT78, read-out: Cytotoxicity IC50, Hut78 CTCL cells
[14] = arm 1, alvocidib with cytarabine and mitoxantrone
[15] = arm 2, alvocidib with cytarabine and mitoxantrone

Compound: Cc1ccc([N+](=O)[O-])cc1S(=O)(=O)N(C)/N=C/c1cnc2ccc(Br)cn12 [F7]
- IC50 (CTCL [1]): 29 to 33 nM
- inhibition of p38γ kinase activity (in words) (p38γ): inhibit p38γ kinase activity

Compound: CN1CC[C@H](c2c(O)cc(O)c3c(=O)cc(-c4ccccc4Cl)oc23)[C@H](O)C1 [FVP, Flavopiridol]
- partial response [2]: 6/43 partial response
- IC50 (Hut78 CTCL cells; [13]): 94 nM
- IC50 (Hut78 CTCL cells; HuT78, read-out: Cytotoxicity IC50, Hut78 cells, abstract): < 100 nM
- IC50 (p38α): 1340 nM
- serious adverse events [3]: 19/45
- serious adverse events ([4]; patients affected/total): 14/28
- partial response ([4]; patients responding/evaluated): 2/26
- complete response [4]: no complete response
- IC50 (p38δ): 450 nM
- complete response [5]: 76/109
- serious adverse events [5]: 53/114
- ORR ([6]; flavopiridol): 21/52
- serious adverse events ([6]; highest dose group): 1/16
- serious adverse events ([6]; lower dose group): 11/42
- IC50 (CTCL [7]): 120 nM
- complete response ([8]; out of 45 patients): 1
- partial responses ([8]; out of 45 patients): 8
- Median OS [8]: 17.5 months
- median time to progression [8]: 4.3 months
- serious adverse events [8]: 23/45
- Serious adverse event [9]: 36/36
- complete remission [9]: 10/36
- partial response [10]: 1/13
- serious adverse events [10]: 6/13
- stable disease [10]: 4/13
- Serious adverse event [11, 14]: 8/39
- complete response [11, 14]: 24/37
- Serious adverse event [11, 15]: 8/39
- complete response [11, 15]: 29/37
- median overall survival [12]: 4.2 months
- median time to disease progression [12]: 8 weeks
- serious adverse events [12]: 9/9
- stable disease [12]: 3/9

Compound: O=C(Nc1ccc([N+](=O)[O-])cc1Cl)c1cc(Cl)ccc1O [niclosamide]
- CI (Hut78 cells; FVP 60.0 nM + Nic 0.2 μM (200 nM)): 0.6
- CI (Hut78 cells; FVP 240.0 nM + Nic 0.2 μM (200 nM)): 0.7

Compound: CN1CCC(c2c(O)cc(O)c3c(=O)cc(-c4ccccc4Cl)oc23)C1CO (centres unmarked) [P276-00]
- inhibition of p38γ kinase activity (in words) (p38γ): inhibit p38γ kinase activity

Compound: O=c1c(O)c(-c2cc(O)c(O)c(O)c2)oc2cc(O)cc(O)c12 [Myricetin]
- IC50 (Hut78 CTCL cells; [13]): 19200 nM
- targets p38δ isoform (in words) (p38δ): targets three isoforms except p38δ
- IC50 (p38γ; cell-free, ADP-Glo): 1600 nM

From PMC8248901 (Journal of clinical haematology, 2021)
